Measured values as given in publication PMC12040169 (PLOS Biology, 2025).

Experiment: in vitro
Conditions: human, hela cells, % viability

In order of falling viability at 28.5 h, 10 µM:
1. N#Cc1ccc(-c2cnc(N)c(-c3ccc(C(=O)N4CCOCC4)cc3)n2)cc1 [CBK064067T]  116%
2. COCCNc1nc(-c2cccc(C(N)=O)c2)cnc1N [CBK063901]  115%
3. Nc1ncc(-c2cccc(OC(F)(F)F)c2)nc1-c1ccc(F)c(Cl)c1 [CBK064021]  113%
4. C[C@@H](c1ccccc1)n1c(=O)[nH]c2ncc(-c3ccco3)nc21 [CBK064168]  112%
5. Nc1ncc(-c2ccc(Cl)cc2)nc1-c1ccc(N2CCOCC2)cc1 [CBK063953]  111%
6. C[C@H](c1ccccc1)n1c(=O)[nH]c2ncc(-c3ccc(C(N)=O)cc3)nc21 [CBK064377]  111%
7. Nc1ncc(-c2ccccc2CO)nc1Nc1ccc2[nH]ccc2c1 [CBK063843]  109%
8. Nc1ncc(-c2cccc(Br)c2)nc1NC1CCOCC1 [CBK063854]  108%
9. COCCn1c(=O)[nH]c2ncc(-c3ccsc3)nc21 [CBK064156]  108%
10. C[C@@H](Nc1nc(-c2cccc3ncccc23)cnc1N)c1ccccc1 [CBK063755]  107%
11. CC(C)[C@H](CO)Nc1nc(-c2ccccc2)cnc1N [CBK063933]  107%
12. COc1ccc(-c2nc(-c3cccs3)cnc2N)cc1OC [CBK063981]  107%
13. CC(C)Cn1c(=O)[nH]c2ncc(-c3cccc4ccccc34)nc21 [CBK064194]  107%
14. C[C@H](Nc1nc(-c2cc(C(F)(F)F)cc(C(F)(F)F)c2)cnc1N)c1ccccc1 [CBK063768]  106%
15. Nc1ncc(-c2ccco2)nc1-c1ccc(F)c(Cl)c1 [CBK064013]  106%
16. Nc1ncc(-c2ccncc2)nc1-c1ccc(C=O)cc1 [CBK064102]  106%
17. CC(C)CNc1nc(-c2ccc(F)cc2)cnc1N [CBK063815]  105%
18. Nc1ncc(-c2ccncc2)nc1NCC1CCOCC1 [CBK063816]  105%
19. COc1ccc(-c2nc(-c3ccoc3)cnc2N)cc1OC [CBK063964]  105%
20. COCOc1ccc(-c2nc(-c3cccc(NS(C)(=O)=O)c3)cnc2N)cc1 [CBK063985]  105%
21. CN(C)c1ccc(-c2nc(-c3ccco3)cnc2N)cc1 [CBK063934]  104%
22. Nc1ncc(-c2cccc(O)c2)nc1-c1ccc(C=O)cc1 [CBK064088]  104%
23. Nc1ncc(-c2cccc(/C=C/C(=O)O)c2)nc1NCCCO [CBK063887]  103%
24. CC(=O)c1ccc(-c2nc(-c3cccc(OC(F)(F)F)c3)cnc2N)cc1 [CBK064105]  103%
25. Nc1ncc(-c2cccc(O)c2)nc1-c1ccc(CCC(=O)O)cc1 [CBK064135]  103%
26. COc1ccc(-c2cnc3[nH]c(=O)n(Cc4ccccc4)c3n2)cc1 [CBK064210]  103%
27. Nc1ncc(-c2ccco2)nc1NC1CCOCC1 [CBK063806]  102%
28. Nc1ncc(-c2ccncc2)nc1-c1cccc2c1oc1ccccc12 [CBK063889]  102%
29. C[C@H](c1ccccc1)n1c(=O)[nH]c2ncc(-c3ccc(N(C)C)cc3)nc21 [CBK064367]  102%
30. Nc1ncc(-c2cccc3ncccc23)nc1NC1CCOCC1 [CBK063852]  101%
31. CCCC/C=C/c1cnc(N)c(-c2ccc(N3CCOCC3)cc2)n1 [CBK063891]  101%
32. COCOc1ccc(-c2nc(-c3cccs3)cnc2N)cc1 [CBK063977]  101%
33. Nc1ncc(-c2cccs2)nc1-c1ccc(F)c(Cl)c1 [CBK063990]  101%
34. Nc1ncc(-c2occc2C=O)nc1-c1ccc(F)c(Cl)c1 [CBK064005]  101%
35. Nc1ncc(-c2ccoc2)nc1-c1ccc(C(=O)N2CCOCC2)cc1 [CBK064076]  101%
36. C[C@H](c1ccccc1)n1c(=O)[nH]c2ncc(-c3cccc4ccccc34)nc21 [CBK064241]  101%
37. CN1CCN(C(=O)c2cccc(-c3nc(-c4ccc(C#N)cc4)cnc3N)c2)CC1 [CBK064144]  100%
38. COc1ccccc1-c1cnc2[nH]c(=O)n(CC3CCOCC3)c2n1 [CBK064286]  100%
39. CC(C)[C@@H](CO)Nc1nc(-c2cccc(Br)c2)cnc1N [CBK063758]  99.5%
40. CC(C)CNc1nc(-c2cccnc2)cnc1N [CBK063780]  99.5%
41. O=C(c1ccc(-c2cnc3[nH]c(=O)n(CCc4cccnc4)c3n2)cc1)N1CCOCC1 [CBK064334]  99.1%
42. NC(=O)c1cccc(-c2cnc(N)c(NC3CCOCC3)n2)c1 [CBK063836]  98.8%
43. COc1ccccc1-c1cnc2[nH]c(=O)n(C3CCCCC3)c2n1 [CBK064203]  98.7%
44. COc1ccc(-c2nc(-c3cc4ccccc4s3)cnc2N)cc1OC [CBK063963]  98.6%
45. CC(=O)Nc1cccc(-c2cnc3[nH]c(=O)n([C@@H](C)c4ccccc4)c3n2)c1 [CBK064159]  98.2%
46. CC(=O)c1ccc(-c2cnc3[nH]c(=O)n([C@H](C)c4ccccc4)c3n2)s1 [CBK064375]  98.2%
47. CC(=O)c1ccc(-c2nc(-c3ccoc3)cnc2N)cc1 [CBK064058]  97.3%
48. CN(C)CCn1c(=O)[nH]c2ncc(-c3ccco3)nc21 [CBK064251]  97.1%
49. CC(C)CNc1nc(-c2cccc(N(C)C)c2)cnc1N [CBK063870]  97%
50. O=c1[nH]c2ncc(-c3ccsc3)nc2n1Cc1ccccc1 [CBK064227]  96.7%
51. C[C@H](c1ccccc1)n1c(=O)[nH]c2ncc(-c3cccc(-c4ccccc4)c3)nc21 [CBK064158]  96.5%
52. C[C@H](c1ccccc1)n1c(=O)[nH]c2ncc(-c3cccc(C(=O)NCCN(C)C)c3)nc21 [CBK064204]  96.5%
53. COc1ccccc1-c1cnc(N)c(N2CCC(C(=O)O)CC2)n1 [CBK064082]  96.1%
54. O=c1[nH]c2ncc(-c3cccc(-c4ccccc4)c3)nc2n1Cc1ccccc1 [CBK064252]  96.1%
55. O=c1[nH]c2ncc(-c3cccc4cccnc34)nc2n1C1CCCCC1 [CBK064215]  96%
56. CC(=O)Nc1cccc(-c2cnc3[nH]c(=O)n([C@H](C)c4ccccc4)c3n2)c1 [CBK064188]  95.9%
57. CCCC/C=C/c1cnc(N)c(-c2ccc(O)cc2)n1 [CBK064068]  95.3%
58. Nc1ncc(-c2cccc(OC(F)(F)F)c2)nc1-c1ccc(CCC(=O)O)cc1 [CBK064071]  95.2%
59. Nc1ncc(-c2cccc(F)c2)nc1Nc1ccc2[nH]ccc2c1 [CBK063851]  95.1%
60. CCCC/C=C/c1cnc(N)c(N[C@H](C)c2ccccc2)n1 [CBK064148]  95.1%
61. COc1ccc(-c2nc(-c3ccc(C#N)cc3)cnc2N)cc1OC [CBK063885]  94.6%
62. NC(=O)c1cccc(-c2nc(-c3cc4ccccc4o3)cnc2N)c1 [CBK063996]  94.5%
63. O=c1[nH]c2ncc(-c3ccc(-c4ccccc4)cc3)nc2n1Cc1cccnc1 [CBK064282]  94%
64. O=c1[nH]c2ncc(-c3cccc(OC(F)(F)F)c3)nc2n1C1CCCCC1 [CBK064187]  93.6%
65. CC(=O)c1ccc(-c2cnc(N)c(NCC(C)C)n2)s1 [CBK063764]  92.8%
66. CN(C)CCn1c(=O)[nH]c2ncc(-c3ccoc3)nc21 [CBK064294]  92.6%
67. CN(C)c1cccc(-c2nc(-c3occc3C=O)cnc2N)c1 [CBK064001]  92.1%
68. Nc1ncc(-c2cc3ccccc3o2)nc1-c1ccc(C=O)cc1 [CBK064126]  91.9%
69. CC(C)Cn1c(=O)[nH]c2ncc(-c3ccco3)nc21 [CBK064353]  91.9%
70. Nc1ncc(-c2cccs2)nc1-c1ccc(C(=O)O)cc1 [CBK064133]  91.4%
71. COc1ncc(-c2cnc(N)c(-c3cccc(N(C)C)c3)n2)c(OC)n1 [CBK064017]  90.9%
72. C[C@@H](Nc1nc(-c2cccc3cccnc23)cnc1N)c1ccccc1 [CBK063784]  90%
73. NC(=O)c1cccc(-c2nc(-c3cccs3)cnc2N)c1 [CBK064117]  89.7%
74. Nc1ncc(-c2ccoc2)nc1-c1ccc(C(=O)O)cc1 [CBK063972]  89.6%
75. CC(=O)c1ccc(-c2nc(-c3ccc(Cl)cc3)cnc2N)cc1 [CBK064097]  89.6%
76. C[C@H](c1ccccc1)n1c(=O)[nH]c2ncc(-c3cccc4ncccc34)nc21 [CBK064173]  89.6%
77. O=c1[nH]c2ncc(-c3cccc4ncccc34)nc2n1Cc1ccccc1 [CBK064245]  89.4%
78. C[C@@H](c1ccccc1)n1c(=O)[nH]c2ncc(-c3cccc(-c4ccccc4)c3)nc21 [CBK064192]  88.8%
79. Nc1ncc(-c2cccc(F)c2)nc1-c1ccc(C(=O)N2CCOCC2)cc1 [CBK064131]  88.4%
80. COc1ccc(C(C)C)cc1-c1cnc2[nH]c(=O)n([C@H](C)c3ccccc3)c2n1 [CBK064181]  87.3%
81. NC(=O)c1cccc(-c2nc(-c3ccc(F)cc3F)cnc2N)c1 [CBK064109]  86.5%
82. O=c1[nH]c2ncc(-c3ccsc3)nc2n1CC1CCOCC1 [CBK064293]  86.3%
83. COc1cncc(-c2cnc(N)c(NC3CCOCC3)n2)c1 [CBK063846]  85.7%
84. COc1ccc(-c2cnc(N)c(N[C@@H](C)c3ccccc3)n2)c(OC)c1OC [CBK063763]  84.9%
85. CCCC/C=C/c1cnc2[nH]c(=O)n(Cc3cccs3)c2n1 [CBK064373]  83.6%
86. COCCCn1c(=O)[nH]c2ncc(-c3cc(C(C)C)ccc3OC)nc21 [CBK064351]  82.8%
87. Nc1ncc(-c2ccoc2)nc1Nc1ccc2[nH]ccc2c1 [CBK063868]  80.5%
88. COc1ccc(-c2nc(-c3cc4ccccc4o3)cnc2N)cc1OC [CBK064099]  63.2%
89. C[C@H](c1ccccc1)n1c(=O)[nH]c2ncc(-c3cccc4cccnc34)nc21 [CBK064237]  44.4%
